Assay results published in patent publication US20240016894A1, “METHODS AND MATERIALS FOR AMELIORATING CREATINE DEFICIENCY DISORDERS” (The Regents of the University of California, priority 2022, published 2024).

Tested on: Gamt−/− mice
Assay: (18F)-FDG PET brain glucose uptake
Format: in vivo, mouse
Conditions: Gamt-deficient mice; sequence regular chow (5.24±0.76), oral creatine supplementation, then AAV (regular chow only)
Text: Considering the importance of the creatine/phosphocreatine shuttle to cells with high-energy expenditures, we examined the uptake of glucose to the brain in Gamt-deficient mice. Fluorodeoxyglucose (18(F)-FDG)-positron-emission tomography (PET) is a well-established non-invasive imaging tool for monitoring changes in cerebral brain glucose metabolism in vivo. To examine restoration of hepatic Gamt and its effect as a treatment strategy in GAMT deficiency, we sought to examine the brain of this preclinical model. By measuring cerebral glucose metabolism with (18F)-FDG-PET we can detect neuronal dysfunction in vivo as brain glucose metabolism is determined by synaptic activity mainly in order to restore membrane potentials (26). To semi-quantitate tissue activity, we determined the activity divided by the decay-corrected activity injected into the mouse; this ratio is defined as the percent-injected dose per cubic centimeter in tissue (% ID/cc). […]
We evaluated if there was a substantial improvement in brain metabolism with restoration of GAMT activity in hepatocytes with a gene therapy approach and compared this to present day therapy with oral creatine supplementation. […]
Animals were anesthetized with 1.5% vaporized isoflurane, and injected with (18F)-FDG via tail vein. […] Co-registered PET/CT data were analyzed and quantified using AMIDE software. […]

With `CN(CC(=O)O)C(=N)N` [creatine] the “Brain (18F)-FDG uptake, each mouse its own control” value was 5.26±1.10 % ID/cc.
